Test results reported in patent publication US20260297042A1, “BIARYLAMIDE DERIVATIVES AND THEIR USE AS PKMYT1 INHIBITORS” (CANCER RESEARCH TECHNOLOGY LIMITED, priority 2023, published 2026).
Structures can show the parent of a compound that is named as a salt.

Experiments:
[1] = biological target: T1, WEE1 (Homo sapiens, UniProt P30291); experiment: Selectivity versus WEE1 assay (ADP-Glo enzymatic assay); format: biochemical; settings: for IC50: ADP-Glo; for PKMYT1 vs. WEE1 selectivity: fold difference in selectivity for PKMYT1 over WEE1
T1 construct: purchased Thermo Fisher PR7373A
Summary of the method: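 Inhibition is measured as reduced ADP production, detected by luminescence with ADP-Glo, after enzyme (15 nM) and 30 µM ATP react for 60 min at 26° C in 1% DMSO-containing HEPES buffer, pH 7.5. Data are accepted only if replicate IC50s fall within 3-fold and r2 exceeds 0.9.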

[2] = biological target: T2, Human PKMYT1 (Homo sapiens, UniProt Q99640); experiment: PKMYT1 biochemical ADP-Glo enzymatic assay; settings: ADP-Glo
T2 construct: Human PKMYT1 75-362 was cloned as a TEV cleavable 6xHis fusion; 6xHis (TEV cleavable) (cleaved yes); made in house; host or cells: bacterial cells
T2 sequence (Q99640 75-362): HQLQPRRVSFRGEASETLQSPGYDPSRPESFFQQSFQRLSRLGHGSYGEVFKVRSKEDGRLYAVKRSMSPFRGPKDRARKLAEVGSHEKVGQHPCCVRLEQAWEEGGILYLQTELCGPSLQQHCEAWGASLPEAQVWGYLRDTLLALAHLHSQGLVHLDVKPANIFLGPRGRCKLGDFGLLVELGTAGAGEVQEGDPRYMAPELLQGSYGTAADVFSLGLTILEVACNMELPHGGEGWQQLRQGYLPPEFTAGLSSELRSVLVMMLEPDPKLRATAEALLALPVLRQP
Summary of the method: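 IC50 derived from luminescence (ADP-Glo Max) after PKMYT1 kinase domain, 15 nM, turned over 500 µM ATP for 60 min at 26 °C. Buffer contained 10 mM MgCl2, 1 mM EGTA and 0.01% Brij-35 at pH 7.5.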

[3] = 15 nM WEE1, 60 minutes at 26° C., banded
[4] = banded, ">N" = at least in this band but could be higher
[5] = 15 nM PKMYT1 kinase domain, 500 µM ATP, 60 minutes at 26° C., banded
[6] = PKMYT1 kinase domain 15 nM, banded values

T1 sequence (P30291 whole entry): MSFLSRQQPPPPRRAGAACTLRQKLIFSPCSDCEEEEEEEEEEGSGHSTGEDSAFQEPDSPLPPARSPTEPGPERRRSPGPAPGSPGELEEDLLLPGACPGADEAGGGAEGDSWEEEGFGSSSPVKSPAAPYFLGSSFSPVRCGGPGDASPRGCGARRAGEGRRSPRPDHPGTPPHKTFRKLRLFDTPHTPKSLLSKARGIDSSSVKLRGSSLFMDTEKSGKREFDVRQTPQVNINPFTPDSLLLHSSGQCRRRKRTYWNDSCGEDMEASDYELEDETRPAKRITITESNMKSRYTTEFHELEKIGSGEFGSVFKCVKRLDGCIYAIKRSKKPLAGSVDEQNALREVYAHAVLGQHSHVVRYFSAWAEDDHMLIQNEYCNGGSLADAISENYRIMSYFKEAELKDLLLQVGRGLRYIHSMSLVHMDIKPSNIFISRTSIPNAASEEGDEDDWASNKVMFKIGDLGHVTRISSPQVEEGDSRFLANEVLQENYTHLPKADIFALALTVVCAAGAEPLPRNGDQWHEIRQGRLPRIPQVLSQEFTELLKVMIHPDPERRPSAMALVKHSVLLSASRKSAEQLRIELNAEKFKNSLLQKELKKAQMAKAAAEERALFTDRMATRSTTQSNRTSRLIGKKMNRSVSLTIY

SMILES | IC50 [1, 3] [nM] | PKMYT1 vs. WEE1 selectivity [1, 4] | IC50 [2, 5] [nM] | IC50 ([1]; WEE1 15 nM, banded values) [nM] | PKMYT1 vs. WEE1 selectivity ([1]; banded) | IC50 [2, 6] [nM]
Cc1ccc(O)c(C)c1NC(=O)c1cnc(NCC2CCN(C(=O)CC(C)(C)C)CC2)s1 [BAA-212, 2-[[1-(3,3-Dimethylbutanoyl)-4-piperidyl]methylamino]-N-(3-hydroxy-2,6-dimethyl-phenyl)thiazole-5-carboxamide] | > 11000 | >X (100-<1000 fold) | 50 to 1000 | – | – | –
CC(=O)Nc1ccc(Nc2ncc(C(=O)Nc3c(C)ccc(O)c3C)s2)cc1 [BAA-513, 2-((4-Acetamidophenyl)amino)-N-(3-hydroxy-2,6-dimethylphenyl)thiazole-5-carboxamide] | – | – | – | 1000 to 11000 | X (100-<1000 fold) | < 50
Cc1ccc(O)c(C)c1NC(=O)c1cnc(Nc2ccn(C3CCCOC3)n2)s1 (stereo not drawn) [BAA-036, N-(3-hydroxy-2,6-dimethyl-phenyl)-2-[(1-tetrahydropyran-3-ylpyrazol-3-yl)amino]thiazole-5-carboxamide] | > 11000 | Z (>5000 fold) | < 50 | – | – | –
Cc1ccc(O)c(C)c1NC(=O)c1cnc(Nc2ccn(C3COC3)n2)s1 [BAA-007, N-(3-hydroxy-2,6-dimethyl-phenyl)-2-[[1-(oxetan-3-yl)pyrazol-3-yl]amino]thiazole-5-carboxamide] | 50 to 1000 | W (10-<100 fold) | < 50 | – | – | –
Cc1cc(Nc2ncc(C(=O)Nc3c(C)ccc(O)c3C)s2)n(CC(C)C)n1 [BAA-238, N-(3-hydroxy-2,6-dimethylphenyl)-2-((1-isobutyl-3-methyl-1H-pyrazol-5-yl)amino)thiazole-5-carboxamide] | > 11000 | Y (1000-5000 fold) | < 50 | – | – | –
CCn1cc(C#N)c(Nc2ncc(C(=O)Nc3c(C)ccc(O)c3C)s2)n1 [BAA-573, 2-((4-cyano-1-ethyl-1H-pyrazol-3-yl)amino)-N-(3-hydroxy-2,6-dimethylphenyl)thiazole-5-carboxamide] | – | – | – | > 11000 | Y (1000-5000 fold) | < 50
Cc1ccc(O)c(C)c1NC(=O)c1cnc(Nc2ncc(C(F)(F)F)cn2)s1 [BAA-279, N-(3-hydroxy-2,6-dimethylphenyl)-2-((5-(trifluoromethyl)pyrimidin-2-yl)amino)thiazole-5-carboxamide] | > 11000 | Y (1000-5000 fold) | < 50 | – | – | –
Cc1ccc(O)c(C)c1NC(=O)c1cnc(Nc2ncccc2C#N)s1 [BAA-408, 2-((3-cyanopyridin-2-yl)amino)-N-(3-hydroxy-2,6-dimethylphenyl)thiazole-5-carboxamide] | – | – | – | > 11000 | X (100-<1000 fold) | 50 to 1000
Cc1ccc(O)c(C)c1NC(=O)c1cnc(Nc2cc(C(F)(F)F)nc(OCC(F)(F)F)n2)s1 [BAA-318, N-(3-hydroxy-2,6-dimethylphenyl)-2-((2-(2,2,2-trifluoroethoxy)-6-(trifluoromethyl)pyrimidin-4-yl)amino)thiazole-5-carboxamide] | > 11000 | Y (1000-5000 fold) | 50 to 1000 | – | – | –
Cc1ccc(O)c(C)c1NC(=O)c1cnc(Nc2ccn(CC3CCOC3)n2)s1 (stereo not drawn) [BAA-032, N-(3-hydroxy-2,6-dimethyl-phenyl)-2-[[1-(tetrahydrofuran-3-ylmethyl)pyrazol-3-yl]amino]thiazole-5-carboxamide] | 1000 to 11000 | W (10-<100 fold) | 50 to 1000 | – | – | –
Cc1cn(CC(=O)O)nc1Nc1ncc(C(=O)Nc2c(C)ccc(O)c2C)s1 [BAA-125, 2-[3-[[5-[(3-hydroxy-2,6-dimethyl-phenyl)carbamoyl]thiazol-2-yl]amino]-4-methyl-pyrazol-1-yl]acetic acid] | > 11000 | Y (1000-5000 fold) | < 50 | – | – | –
CNC(=O)Cn1ccc(Nc2ncc(C(=O)Nc3c(C)ccc(O)c3C)s2)n1 [BAA-141, N-(3-hydroxy-2,6-dimethyl-phenyl)-2-[[1-[2-(methylamino)-2-oxo-ethyl]pyrazol-3-yl]amino]thiazole-5-carboxamide] | > 11000 | X (100-<1000 fold) | < 50 | – | – | –
Cc1ccc(O)c(C)c1NC(=O)c1cnc(Nc2ccn([C@@H]3CCN(C(=O)C(C)(C)c4ccccc4)C3)n2)s1 [BAA-094] | > 11000 | >X (100-<1000 fold) | 50 to 1000 | – | – | –
Cc1ccc(O)c(C)c1NC(=O)c1cnc(Nc2ccn(CC(=O)N3CC4(C3)CN(C(=O)OC(C)(C)C)C4)n2)s1 [BAA-144, tert-butyl 6-[2-[3-[[5-[(3-hydroxy-2,6-dimethyl-phenyl)carbamoyl]thiazol-2-yl]amino]pyrazol-1-yl]acetyl]-2,6-diazaspiro[3.3]heptane-2-carboxylate] | 1000 to 11000 | X (100-<1000 fold) | < 50 | – | – | –
Cc1ccc(O)c(C)c1NC(=O)c1cnc(Nc2cc3ccccn3n2)s1 [BAA-048, N-(3-hydroxy-2,6-dimethyl-phenyl)-2-(pyrazolo[1,5-a]pyridin-2-ylamino)thiazole-5-carboxamide] | > 11000 | Y (1000-5000 fold) | 50 to 1000 | – | – | –
Cc1ccc(O)c(C)c1NC(=O)c1cnc(Nc2n[nH]cc2Br)s1 [BAA-579, 2-((4-Bromo-1H-pyrazol-3-yl)amino)-N-(3-hydroxy-2,6-dimethylphenyl)thiazole-5-carboxamide] | – | – | – | 1000 to 11000 | X (100-<1000 fold) | < 50
Cc1ccc(O)c(C)c1NC(=O)c1cnc(Nc2ccn([C@@H]3CCOC3)n2)s1 [BAA-037] | > 11000 | >X (100-<1000 fold) | 50 to 1000 | – | – | –
Cc1ccc(O)c(C)c1NC(=O)c1cnc(Nc2ccc(C(F)(F)F)cn2)s1 [BAA-280, N-(3-hydroxy-2,6-dimethylphenyl)-2-((5-(trifluoromethyl)pyridin-2-yl)amino)thiazole-5-carboxamide] | > 11000 | Y (1000-5000 fold) | 50 to 1000 | – | – | –
Cc1ccc(O)c(C)c1NC(=O)c1cnc(Nc2ccn(CC(=O)NCCN3CCOCC3)n2)s1 [BAA-035] | > 11000 | X (100-<1000 fold) | 50 to 1000 | – | – | –
Cc1ccc(O)c(C)c1NC(=O)c1cnc(Nc2ccc(NC(=O)CC(C)C)cn2)s1 [BAA-299, N-(3-hydroxy-2,6-dimethylphenyl)-2-((5-(3-methylbutanamido)pyridin-2-yl)amino)thiazole-5-carboxamide] | 1000 to 11000 | X (100-<1000 fold) | < 50 | – | – | –
Cc1ccc(O)c(C)c1NC(=O)c1cnc(Nc2ccn(CC(=O)N[C@@H](C)CO)n2)s1 [BAA-165] | > 11000 | Y (1000-5000 fold) | < 50 | – | – | –
Cc1cn(CC(=O)N2CCC2)nc1Nc1ncc(C(=O)Nc2c(C)ccc(O)c2C)s1 [BAA-374, 2-((1-(2-(azetidin-1-yl)-2-oxoethyl)-4-methyl-1H-pyrazol-3-yl)amino)-N-(3-hydroxy-2,6-dimethylphenyl)thiazole-5-carboxamide] | 1000 to 11000 | X (100-<1000 fold) | < 50 | – | – | –
Cc1ccc(O)c(C)c1NC(=O)c1sc(Nc2ccn(C)n2)nc1N [BAA-219, 4-Amino-N-(3-hydroxy-2,6-dimethyl-phenyl)-2-[(1-methylpyrazol-3-yl)amino]thiazole-5-carboxamide] | 1000 to 11000 | V (3-<10 fold) | 1000 to 11000 | – | – | –
Cc1ccc(O)c(C)c1NC(=O)c1cnc(Nc2cc(C(C)(C)C)nn2-c2ccccc2)s1 [BAA-359, 2-((3-(tert-butyl)-1-phenyl-1H-pyrazol-5-yl)amino)-N-(3-hydroxy-2,6-dimethylphenyl)thiazole-5-carboxamide] | > 11000 | W (10-<100 fold) | 1000 to 11000 | – | – | –
Cc1ccc(O)c(C)c1NC(=O)c1cnc(Nc2ccc3c(c2)NC(=O)CO3)s1 [BAA-515, N-(3-hydroxy-2,6-dimethylphenyl)-2-((3-oxo-3,4-dihydro-2H-benzo[b][1,4]oxazin-6-yl)amino)thiazole-5-carboxamide] | – | – | – | 1000 to 11000 | X (100-<1000 fold) | < 50
Cc1ccc(O)c(C)c1NC(=O)c1cnc(NCC2CCNCC2)s1 [BAA-079, N-(3-hydroxy-2,6-dimethyl-phenyl)-2-(4-piperidylmethylamino)thiazole-5-carboxamide hydrochloride] | > 11000 | >W (10-<100 fold) | 1000 to 11000 | – | – | –
